Measured values taken from patent publication US20260285850A1, “SUBSTITUTED OXAZOLIDINONES AND IMIDAZOLINONES AS HERBICIDES” (FMC CORPORATION, priority 2023, published 2026).

What was measured:
Assay type in all cases: in vivo
[1] = test system: barnyardgrass (Echinochloa crus-galli); assay: Test A preemergence soil spray, visual injury rating 0-100; settings: 10 days
Method in brief: (§1)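 Directed preemergence spray onto seeded soil or postemergence spray onto 2-10 cm plants (loam plus sand); compound carried in surfactant-containing non-phytotoxic solvent. Injury rated by eye after 10 d greenhouse growth; 0 = no effect, 100 = complete control.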

[2] = test system: green foxtail (Setaria viridis); assay: as above; settings: 10 days
Method in brief: as §1

[3] = test system: ryegrass, Italian (italian ryegrass, Lolium multiflorum); assay: as above; settings: 10 days
Method in brief: as §1

[4] = test system: wheat (Triticum aestivum); assay: as above; settings: 10 days
Method in brief: as §1

[5] = test system: palmer (palmer amaranth, palmer pigweed, Amaranthus palmeri); assay: as above; settings: 10 days
Method in brief: as §1

[6] = test system: corn (Zea mays); assay: as above; settings: 10 days
Method in brief: as §1

[7] = test system: soybean (Glycine max); assay: as above; settings: 10 days
Method in brief: as §1

[8] = test system: kochia (Bassia scoparia); assay: as above; settings: 10 days
Method in brief: as §1

[9] = test system: ragweed (common ragweed, Ambrosia artemisiifolia); assay: as above; settings: 10 days
Method in brief: as §1

[10] = test system: blackgrass (Alopecurus myosuroides); assay: as above; settings: 10 days
Method in brief: as §1

[11] = test system: oat, wild (wild oat, Avena fatua); assay: as above; settings: 10 days
Method in brief: as §1

[12] = test system: barnyardgrass (Echinochloa crus-galli); assay: Test A postemergence application, visual injury rating 0-100
Method in brief: as §1

[13] = test system: green foxtail (Setaria viridis); assay: as above
Method in brief: as §1

[14] = test system: galium (catchweed bedstraw, Galium aparine); assay: as above
Method in brief: as §1

[15] = test system: ryegrass, Italian (italian ryegrass, Lolium multiflorum); assay: as above
Method in brief: as §1

[16] = test system: wheat (Triticum aestivum); assay: as above
Method in brief: as §1

[17] = test system: palmer (palmer amaranth, palmer pigweed, Amaranthus palmeri); assay: as above
Method in brief: as §1

[18] = test system: corn (Zea mays); assay: as above
Method in brief: as §1

[19] = test system: soybean (Glycine max); assay: as above
Method in brief: as §1

[20] = test system: kochia (Bassia scoparia); assay: as above
Method in brief: as §1

[21] = test system: ragweed (common ragweed, Ambrosia artemisiifolia); assay: as above
Method in brief: as §1

[22] = test system: blackgrass (Alopecurus myosuroides); assay: as above
Method in brief: as §1

[23] = test system: oat, wild (wild oat, Avena fatua); assay: as above
Method in brief: as §1

[24] = test system: sedge, umbrella (small-flower umbrella sedge, Cyperus difformis); assay: Test B flooded paddy test, visual plant response rating 0-100; settings: 250 g ai/ha, Flood, applied to paddy water, evaluated after 13 days
Method in brief: (§2)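 In this flooded assay, 2-leaf seedlings received compound through the water layer, kept at 3 cm over the soil. Plants were held 13 days in a greenhouse and then visually compared with control pots.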

[25] = test system: rice (Oryza sativa); assay: as above; settings: 250 g ai/ha, Flood, applied to paddy water, evaluated after 13 days
Method in brief: as §2

[26] = test system: ducksalad (Heteranthera limosa); assay: as above; settings: 250 g ai/ha, Flood, applied to paddy water, evaluated after 13 days
Method in brief: as §2

[27] = test system: barnyardgrass (Echinochloa crusgalli); assay: as above; settings: 250 g ai/ha, Flood, applied to paddy water, evaluated after 13 days
Method in brief: as §2

[28] = 62 g ai/ha, 0 = no effect, 100 = complete control
[29] = 62 g ai/ha, postemergence, 10 days, 0 = no effect, 100 = complete control
[30] = Postemergence, 16 g ai/ha, greenhouse 10 days, 0 no effect, 100 complete control

C=CC1(C(=O)NC2COC(C(=O)OC)C2)CN(c2cc(F)cc(F)c2)C(=O)O1 (centres unmarked) [Compound 170]
Barnyardgrass plant response rating ([1]; 16 g ai/ha, 0 to 100 scale): 0 | Barnyardgrass plant response rating (0-100) [1, 28]: 0 | Foxtail, Green plant response rating ([2]; 16 g ai/ha, 0 to 100 scale): 0 | Foxtail, Green plant response rating (0-100) [2, 28]: 0 | Ryegrass, Italian plant response rating ([3]; 16 g ai/ha, 0 to 100 scale): 10 | Ryegrass, Italian plant response rating (0-100) [3, 28]: 20 | Wheat plant response rating ([4]; 16 g ai/ha, 0 to 100 scale): 0 | Wheat plant response rating (0-100) [4, 28]: 0 | Pigweed, Palmer plant response rating ([5]; 16 g ai/ha, 0 to 100 scale): 0 | Pigweed, Palmer plant response rating (0-100) [5, 28]: 0 | Corn plant response rating ([6]; 16 g ai/ha, 0 to 100 scale): 0 | Corn plant response rating (0-100) [6, 28]: 0 | Soybean plant response rating ([7]; 16 g ai/ha, 0 to 100 scale): 0 | Soybean plant response rating (0-100) [7, 28]: 0 | Kochia plant response rating ([8]; 16 g ai/ha, 0 to 100 scale): 0 | Kochia plant response rating (0-100) [8, 28]: 0 | Ragweed plant response rating ([9]; 16 g ai/ha, 0 to 100 scale): 0 | Ragweed plant response rating (0-100) [9, 28]: 0 | Blackgrass plant response rating ([10]; 16 g ai/ha, 0 to 100 scale): 0 | Blackgrass plant response rating (0-100) [10, 28]: 0 | Oat, Wild plant response rating ([11]; 16 g ai/ha, 0 to 100 scale): 0 | Oat, Wild plant response rating (0-100) [11, 28]: 0 | Barnyardgrass plant response rating (0-100) [12, 29]: 30 | Barnyardgrass plant response rating (0 to 100 scale) [12, 30]: 0 | Foxtail, Green plant response rating (0-100) [13, 29]: 0 | Foxtail, Green plant response rating (0 to 100 scale) [13, 30]: 0 | Galium plant response rating (0-100) [14, 29]: 40 | Galium plant response rating (0 to 100 scale) [14, 30]: 0 | Ryegrass, Italian plant response rating (0-100) [15, 29]: 0 | Ryegrass, Italian plant response rating (0 to 100 scale) [15, 30]: 0 | Wheat plant response rating (0-100) [16, 29]: 0 | Wheat plant response rating (0 to 100 scale) [16, 30]: 0 | Pigweed, Palmer plant response rating (0-100) [17, 29]: 0 | Pigweed, Palmer plant response rating (0 to 100 scale) [17, 30]: 0 | Corn plant response rating (0-100) [18, 29]: 0 | Corn plant response rating (0 to 100 scale) [18, 30]: 0 | Soybean plant response rating (0-100) [19, 29]: 30 | Soybean plant response rating (0 to 100 scale) [19, 30]: 0 | Kochia plant response rating (0-100) [20, 29]: 0 | Kochia plant response rating (0 to 100 scale) [20, 30]: 0 | Ragweed plant response rating (0-100) [21, 29]: 0 | Ragweed plant response rating (0 to 100 scale) [21, 30]: 0 | Blackgrass plant response rating (0-100) [22, 29]: 0 | Blackgrass plant response rating (0 to 100 scale) [22, 30]: 0 | Oat, Wild plant response rating (0-100) [23, 29]: 0 | Oat, Wild plant response rating (0 to 100 scale) [23, 30]: 0 | Plant response rating, Sedge, Umbrella (0 to 100 scale, 0 is no effect and 100 is complete control) [24]: 0 | Plant response rating, Rice (0 to 100 scale, 0 is no effect and 100 is complete control) [25]: 0 | Plant response rating, Ducksalad (0 to 100 scale, 0 is no effect and 100 is complete control) [26]: 0 | Plant response rating, Barnyardgrass (0 to 100 scale, 0 is no effect and 100 is complete control) [27]: 0
